Read-outs that look alike come from different tables or passages of the source. Blank lines part the entries; values can stand above or below the molecule they belong to.
Experiments:
[1] = cited from earlier work
[2] = system: individuals with a systolic blood pressure above 140 mmHg receiving at least three blood-pressure-lowering drugs; conditions: cited from earlier work
[3] = system: CHF; conditions: at higher doses; cited from earlier work
[4] = system: subjects with type 1 diabetes and proteinuria not receiving RAS inhibitors; assay: Study M96-499, Phase 2 cross-over study of atrasentan; assay type: in vivo, human
Text: The most commonly experienced treatment-emergent adverse events in the atrasentan group were peripheral edema (64%), pulmonary edema (18%), rhinitis (36%) and headache (18%), whereas in the placebo group there was no peripheral edema, but there were reports of rhinitis (11%) and headache (56%).

[5] = system: subjects with type 2 diabetes and albuminuria on stable doses of RAS inhibitors; assay: Study M10-815, Phase 2a placebo controlled study of atrasentan; assay type: in vivo, human; conditions: for reduction in the mean UACR from baseline: placebo 11%; for subjects with mild to moderate peripheral edema: placebo 9%
Description: In a Phase 2a double-blind, randomized, placebo controlled study (referred to herein as M10-815), subjects with type 2 diabetes and albuminuria who were on stable doses of RAS inhibitors were administered atrasentan HCl at 0.25, 0.75 or 1.75 mg QD for 8 weeks.

[6] = system: patients with type 2 diabetic nephropathy; assay: Two Phase 2b 12 week placebo-controlled studies of atrasentan in residual albuminuria; assay type: in vivo, human; conditions: for Linear regression coefficient, hemoglobin response: hemoglobin change after two weeks; for Linear regression coefficient, weight response: weight change after two weeks
Description: Two Phase 2b, multicenter, prospective, randomized, double-blinded, placebo-controlled, 12 week studies were conducted to evaluate the efficacy and safety of atrasentan compared to placebo in reducing residual albuminuria. Atrasentan was studied at doses of 0.75 mg QD and 1.25 mg QD. The study methodologies were the identical, but for the location. (NCT01356849 in U.S., Canada, and Taiwan; NCT10424319 in Japan). Additional clinical details can be found in Kohan, D E, et al., “Predictors of Atrasentan-Associated Fluid Retention and Change in Albuminuria in Patients with Diabetic Nephropathy,” Clin J Am Soc Nephrol, September 2015, 10:1568-1574, which is hereby incorporated by reference in its entirety. Observations in body weight changes and hemoglobin changes may be used as surrogate markers for changes in fluid retention. Demographic parameters were similar between the placebo and atrasentan 0.75 and 1.25 mg/d arms (Table 1). The following abbreviations are used within the table: BNP=B-type natriuretic peptide; DBP=diastolic blood pressure; eGFR=estimated glomerular filtration rate; HbA1c=glycated hemoglobin; RAS=renin-angiotensin system; SBP=systolic blood pressure; UACR=urinary albumin to creatinine ratio. Table 1 is reproduced in part from de Zeeuw D, et al., The endothelin antagonist atrasentan lowers residual albuminuria in patients with type 2 diabetic nephropathy. J Am Soc Nephrol 25: 1083-1093, 2014, which is hereby incorporated by reference in its entirety. Values within Table 1 are mean±standard deviation unless stated otherwise. The abbreviations used in Table 3 include BP=blood pressure; eGFR=estimated glomerular filtration rate; HbA1c=glycated hemoglobin; HOMA=homeostatic model assessment. The following covariates were included in the initial backward selection model: treatment assignment, age, gender, body weight, Hb, eGFR, albuminuria, systolic blood pressure (BP), eGFR, log transformed homeostatic metabolic assessment (HOMA) product, log-transformed B-type natriuretic peptide (BNP), thiazide and loop-diuretic use. Systolic blood pressure and atrasentan dose were not included in the final logistic regression models for body weight and hemoglobin, respectively.

[7] = system: patients with acute CHF; conditions: intravenous, doses greater than 1 mg/hr; cited from earlier work
[8] = system: congestive heart failure (CHF); conditions: within the first 4-8 weeks; thought to be a consequence of fluid retention; cited from earlier work
[9] = 1-10 mg/day; cited from earlier work
[10] = system: participants with type 2 diabetes and overt diabetic nephropathy; conditions: cited from earlier work; for median decrease of UACR: median follow-up 4 months, placebo 9.7%; for discontinuation of trial medications due to adverse events: placebo 1.5%; for deaths: placebo 12
[11] = after 14 weeks, 50, 100 or 300 mg once daily, non-dose-dependent
[12] = 0.75 mg/day vs. placebo, after two weeks
[13] = 0.75 mg/day, Recovery (30 days)
[14] = 1.25 mg/day vs. placebo, after two weeks
[15] = 1.25 mg/day, Recovery (30 days)

SMILES: Cc1cc2c(cc1CC(=O)c1sccc1S(=O)(=O)Nc1onc(C)c1Cl)OCO2 [Sitaxsentan]
edema ([1]; higher doses): significantly causes edema
edema ([1]; lower doses (100 or 300 mg daily)): less tendency to cause edema

SMILES: COc1cc(OC)nc(O[C@H](C(=O)O)C(OC)(c2ccccc2)c2ccccc2)n1 [darusentan]
reduction in diastolic clinic seated blood pressure compared with placebo [2, 11]: ~5 mmHg
reduction in systolic clinic seated blood pressure compared with placebo [2, 11]: about 10 mmHg
patients discontinuing because of fluid retention or peripheral edema ([2]; combined darusentan treatment groups): 2%
patients with edema and/or fluid retention reported ([2]; darusentan groups combined, placebo 14%): 27%
patients with cardiac-related serious adverse events ([2]; patients taking darusentan): five
worsening of CHF [3]: tended to worsen CHF

subjects with mild to moderate peripheral edema ([5]; 0.25 mg QD): 14%
subjects with mild to moderate peripheral edema ([5]; 0.75 mg QD): 18%
subjects with mild to moderate peripheral edema ([5]; 1.75 mg QD): 46%
Logistic regression association with ≧1.3 g/dl fall in Hb [6, 12]: no significant association
Logistic regression odds ratio (95% CI), ≧2 kg weight gain [6, 12]: 3.0 (1.0-8.5)
Linear regression coefficient, hemoglobin response ([6]; 0.75 mg/day vs. placebo): −0.7
Linear regression coefficient, weight response ([6]; 0.75 mg/day vs. placebo): 0.8
BNP, median ([6]; 0.75 mg/day, Baseline): 33.0 pg/mL
Hemoglobin, Mean (SD) ([6]; 0.75 mg/day, Baseline): 12.9 (1.5) g/dL
Weight, Mean (SD) ([6]; 0.75 mg/day, Baseline): 87.1 (22.1) kg
Hemoglobin, Mean (SD) [6, 13]: 12.4 (1.5) g/dL
Weight, Mean (SD) [6, 13]: 85 (23) kg
Hemoglobin, Mean (SD) ([6]; 0.75 mg/day, Week 2): 12.0 (1.5) g/dL
Weight, Mean (SD) ([6]; 0.75 mg/day, Week 2): 88.0 (22.2) kg
Weight, Mean (SD) ([6]; 0.75 mg/day, Week 6): 87.3 (21.8) kg
BNP, median ([6]; 0.75 mg/day, Week 12): 33.1 pg/mL
Hemoglobin, Mean (SD) ([6]; 0.75 mg/day, Week 12): 11.8 (1.6) g/dL
Weight, Mean (SD) ([6]; 0.75 mg/day, Week 12): 87.3 (22.3) kg
Logistic regression odds ratio (95% CI), ≧1.3 g/dL hemoglobin fall [6, 14]: 5.6 (2.5-12.7)
Logistic regression odds ratio (95% CI), ≧2 kg weight gain [6, 14]: 6.6 (2.3-18.6)
Linear regression coefficient, hemoglobin response ([6]; 1.25 mg/day vs. placebo): −1.0
Linear regression coefficient, weight response ([6]; 1.25 mg/day vs. placebo): 1.3
BNP, median ([6]; 1.25 mg/day, Baseline): 33.5 pg/mL
Hemoglobin, Mean (SD) ([6]; 1.25 mg/day, Baseline): 12.9 (1.8) g/dL
Weight, Mean (SD) ([6]; 1.25 mg/day, Baseline): 88.3 (18.4) kg
Hemoglobin, Mean (SD) [6, 15]: 12.5 (1.9) g/dL
Weight, Mean (SD) [6, 15]: 88 (19) kg
Hemoglobin, Mean (SD) ([6]; 1.25 mg/day, Week 2): 11.8 (1.8) g/dL
Weight, Mean (SD) ([6]; 1.25 mg/day, Week 2): 89.4 (18.7) kg
Weight, Mean (SD) ([6]; 1.25 mg/day, Week 6): 89.6 (19.0) kg
BNP, median ([6]; 1.25 mg/day, Week 12): 37.0 pg/mL
Hemoglobin, Mean (SD) ([6]; 1.25 mg/day, Week 12): 11.8 (1.8) g/dL
Weight, Mean (SD) ([6]; 1.25 mg/day, Week 12): 89.0 (19.2) kg
hemoglobin (Hb) decrease ([6]; both atrasentan groups after 2 weeks, persisted throughout treatment): approximately 1 g/dl
Hb after treatment discontinuation ([6]; by 30 days after treatment discontinuation): normalized
change in B-natriuretic peptide (BNP) ([6]; patients who received atrasentan): no significant change
SMILES: CCCCN(CCCC)C(=O)CN1C[C@H](c2ccc3c(c2)OCO3)[C@@H](C(=O)O)[C@@H]1c1ccc(OC)cc1 [Atrasentan, (2R,3R,4S)-4-(1,3-benzodioxol-5-yl)-1-[2-(dibutylamino)-2-oxoethyl]-2-(4-methoxyphenyl)pyrrolidine-3-carboxylic acid]
mean arterial blood pressure (BP) ([4]; 5 mg QD): reduced
pulmonary edema, treatment-emergent adverse event ([4]; 5 mg QD): 18%
peripheral edema, treatment-emergent adverse event ([4]; 5 mg QD, none in placebo): 64%
rhinitis, treatment-emergent adverse event ([4]; 5 mg QD, placebo 11%): 36%
headache, treatment-emergent adverse event ([4]; 5 mg QD, placebo 56%): 18%
reduction in urinary albumin excretion ([4]; 5 mg daily (QD)): 65%
reduction in the mean UACR from baseline ([5]; 0.25 mg QD for 8 weeks, non-significant, P=0.291): 21%
reduction in the mean UACR from baseline ([5]; 0.75 mg QD for 8 weeks, 1-sided P=0.023): 42%
reduction in the mean UACR from baseline ([5]; 1.75 mg QD for 8 weeks, 1-sided P=0.073): 35%
UACR, median ([6]; 0.75 mg/day, Baseline): 878 mg/g
UACR, median [6, 13]: 1051 mg/g
UACR, median ([6]; 0.75 mg/day, Week 2): 573 mg/g
UACR, median ([6]; 0.75 mg/day, Week 6): 636 mg/g
UACR, median ([6]; 0.75 mg/day, Week 12): 521 mg/g
UACR, median ([6]; 1.25 mg/day, Baseline): 826 mg/g
UACR, median [6, 15]: 727 mg/g
UACR, median ([6]; 1.25 mg/day, Week 2): 515 mg/g
UACR, median ([6]; 1.25 mg/day, Week 6): 461 mg/g
UACR, median ([6]; 1.25 mg/day, Week 12): 470 mg/g
body weight increase ([6]; after 2 weeks of treatment, placebo decreased approximately 1 kg): approximately 1 kg

SMILES: COc1ccccc1Oc1c(NS(=O)(=O)c2ccc(C(C)C)cn2)nc(-c2ccnc(-c3nnn[nH]3)c2)nc1OCCO [tezosentan]
urine output [7]: reduced urine output

SMILES: COc1ccccc1Oc1c(NS(=O)(=O)c2ccc(C(C)(C)C)cc2)nc(-c2ncccn2)nc1OCCO [Bosentan]
worsening of congestive heart failure [8]: associated with early worsening of congestive heart failure (CHF)

SMILES: COC(c1ccccc1)(c1ccccc1)[C@H](Oc1nc(C)cc(C)n1)C(=O)O [Ambrisentan]
edema incidence [9]: 25%

SMILES: COc1ccccc1Oc1c(NS(=O)(=O)c2ccc(C)cn2)nc(-c2ccncc2)nc1OC [avosentan]
median decrease of UACR ([10]; 25 mg): 44%
discontinuation of trial medications due to adverse events ([10]; 25 mg): 19.69%
deaths ([10]; 25 mg): 21
median decrease of UACR ([10]; 50 mg): 49%
discontinuation of trial medications due to adverse events ([10]; 50 mg): 18.2%
deaths ([10]; 50 mg): 17

From patent US20160128980A1, “METHODS OF TREATING CKD USING PREDICTORS OF FLUID RETENTION” (AbbVie Inc., priority 2014, published 2016)
